Assay: solvent given as SMILES
[1] = in CCCCC(CC)COC(=O)CCCCC(=O)OCC(CC)CCCC
[2] = in CCCCCCCCC=CCCCCCCCC(=O)OCC(COC(=O)CCCCCCCC=CCCCCCCCC)OC(=O)CCCCCCCC=CCCCCCCCC

COC(=O)OC
solvation free energy, 298 K (in C1CCCCC1): -3.6 kcal/mol | solvation free energy, 298 K (in CC(Cl)(Cl)Cl): -4.63 kcal/mol | solvation free energy, 298 K (in CCC1CO1): -4.73 kcal/mol | solvation free energy, 298 K (in CCCO): -3.72 kcal/mol | solvation free energy, 298 K (in COC(C)(C)C): -4.24 kcal/mol | solvation free energy, 298 K (in ClC(Cl)(Cl)Cl): -4.27 kcal/mol | solvation free energy, 298 K (in ClCCCl): -5.04 kcal/mol | solvation free energy, 298 K (in O): -3.53 kcal/mol | solvation free energy, 298 K (in c1ccccc1): -4.66 kcal/mol

Cc1cc(O)ccc1Cl
solvation free energy, 298 K (in O): -6.79 kcal/mol

Clc1cc(-c2cc(Cl)c(Cl)c(Cl)c2Cl)c(Cl)c(Cl)c1Cl
solvation free energy, 298 K (in CCCCCCCCO): -15.2 kcal/mol | solvation free energy, 298 K (in O): -3.77 kcal/mol

COc1cc(C=O)ccc1O
solvation free energy, 298 K (in O): -8.76 kcal/mol

CC(C)C#N
solvation free energy, 298 K (in CCCCCCCCCCCCCCCC): -3.08 kcal/mol | solvation free energy, 298 K (in CCCCCCCCO): -3.92 kcal/mol | solvation free energy, 298 K (in O): -3.31 kcal/mol | solvation free energy, 298 K (in [2H]O[2H]): -3.29 kcal/mol

CN(C)c1ccccc1
solvation free energy, 298 K (in CCCCCCCCCCCCCCCC): -6.4 kcal/mol | solvation free energy, 298 K (in O): -3.45 kcal/mol

CC=CCC
solvation free energy, 298 K (in CN(C)C=O): -2.46 kcal/mol

COC(C)=O
solvation free energy, 298 K (in C=CCCCCCCC=C): -3.23 kcal/mol | solvation free energy, 298 K (in CC(=O)N(C)C): -3.82 kcal/mol | solvation free energy, 298 K (in CC(C)=O): -4.12 kcal/mol | solvation free energy, 298 K (in CC(C)CCCC(C)CCCC(C)CCCCC(C)CCCC(C)CCCC(C)C): -2.53 kcal/mol | solvation free energy, 298 K (in CC(C)O): -3.36 kcal/mol | solvation free energy, 298 K (in CCC1CO1): -4.01 kcal/mol | solvation free energy, 298 K [1]: -3.19 kcal/mol | solvation free energy, 298 K (in CCCCCC): -2.93 kcal/mol | solvation free energy, 298 K (in CCCCCCC): -2.78 kcal/mol | solvation free energy, 298 K (in CCCCCCCC): -2.88 kcal/mol | solvation free energy, 298 K [2]: -3.22 kcal/mol | solvation free energy, 298 K (in CCCCCCCCCC): -2.8 kcal/mol | solvation free energy, 298 K (in CCCCCCCCCCCCCCCC): -2.63 kcal/mol | solvation free energy, 298 K (in CCCCCCCCO): -3.15 kcal/mol | solvation free energy, 298 K (in CCCCN(C=O)CCCC): -3.48 kcal/mol | solvation free energy, 298 K (in CCOC(=O)c1ccccc1C(=O)OCC): -3.48 kcal/mol | solvation free energy, 298 K (in CCOCCO): -3.69 kcal/mol | solvation free energy, 298 K (in CCOP(=O)(OCC)OCC): -3.75 kcal/mol | solvation free energy, 298 K (in CN1CCCC1=O): -3.72 kcal/mol | solvation free energy, 298 K (in CN1CCCCC1=O): -3.72 kcal/mol | solvation free energy, 298 K (in CN1CCN(C)C1=O): -3.55 kcal/mol | solvation free energy, 298 K (in CN(C)C=O): -3.9 kcal/mol | solvation free energy, 298 K (in CNC(C)=O): -3.62 kcal/mol | solvation free energy, 298 K (in CO): -3.96 kcal/mol | solvation free energy, 298 K (in COP(=O)(OC)OC): -3.94 kcal/mol | solvation free energy, 298 K (in CS(C)=O): -3.53 kcal/mol | solvation free energy, 298 K (in NC=O): -3.27 kcal/mol | solvation free energy, 298 K (in O): -3.14 kcal/mol | solvation free energy, 298 K (in O=CN1CCOCC1): -3.58 kcal/mol | solvation free energy, 298 K (in OCCOCCO): -3.32 kcal/mol | solvation free energy, 298 K (in [2H]O[2H]): -3.17 kcal/mol | solvation free energy, 298 K (in c1ccc2ncccc2c1): -3.51 kcal/mol

CCCCCCCCCCCCCC(=O)OCC
solvation free energy, 298 K (in O): -7.32 kcal/mol

C=CCCCCC
solvation free energy, 298 K (in C1CCC2CCCCC2C1): -4.38 kcal/mol | solvation free energy, 298 K (in C1CCC(C2CCCCC2)CC1): -4.33 kcal/mol | solvation free energy, 298 K (in C=CCCCCCCCCCCCCCC): -4.16 kcal/mol | solvation free energy, 298 K (in CC#N): -3.44 kcal/mol | solvation free energy, 298 K (in CCC#N): -4.05 kcal/mol | solvation free energy, 298 K (in CCCC#N): -3.78 kcal/mol | solvation free energy, 298 K [1]: -4.03 kcal/mol | solvation free energy, 298 K (in CCCCC(CC)COC(=O)c1ccccc1C(=O)OCC(CC)CCCC): -3.78 kcal/mol | solvation free energy, 298 K (in CCCCCCC): -4.5 kcal/mol | solvation free energy, 298 K [2]: -4.07 kcal/mol | solvation free energy, 298 K (in CCCCCO): -3.93 kcal/mol | solvation free energy, 298 K (in CCCCOC(=O)c1ccccc1C(=O)OCCCC): -3.98 kcal/mol | solvation free energy, 298 K (in CCCCOC(C)=O): -4.28 kcal/mol | solvation free energy, 298 K (in CCN1CCCC1=O): -3.73 kcal/mol | solvation free energy, 298 K (in CCOC(=O)c1ccccc1C(=O)OCC): -3.53 kcal/mol | solvation free energy, 298 K (in CCOC(C)=O): -4.07 kcal/mol | solvation free energy, 298 K (in CN1CCCC1=O): -3.46 kcal/mol | solvation free energy, 298 K (in CN(C)C=O): -3.36 kcal/mol | solvation free energy, 298 K (in CS(C)=O): -2.51 kcal/mol | solvation free energy, 298 K (in N#CCCCCC#N): -2.8 kcal/mol | solvation free energy, 298 K (in N#Cc1ccccc1): -3.92 kcal/mol | solvation free energy, 298 K (in NC=O): -1.24 kcal/mol | solvation free energy, 298 K (in NCCO): -1.63 kcal/mol | solvation free energy, 298 K (in Nc1ccccc1): -3.24 kcal/mol | solvation free energy, 298 K (in O): 1.66 kcal/mol | solvation free energy, 298 K (in O=C1CCCO1): -3 kcal/mol | solvation free energy, 298 K (in O=CN1CCOCC1): -2.89 kcal/mol | solvation free energy, 298 K (in O=Cc1ccco1): -3.2 kcal/mol | solvation free energy, 298 K (in OCCO): -1.45 kcal/mol | solvation free energy, 298 K (in OCCOCCO): -2.1 kcal/mol | solvation free energy, 298 K (in OCCOCCOCCO): -2.27 kcal/mol | solvation free energy, 298 K (in OCCOCCOCCOCCO): -2.4 kcal/mol | solvation free energy, 298 K (in OCc1ccco1): -3.1 kcal/mol | solvation free energy, 298 K (in c1ccc2c(c1)CCCC2): -4.37 kcal/mol | solvation free energy, 298 K (in c1ccc(C2CCCCC2)cc1): -4.31 kcal/mol

Nc1ccc(S(=O)(=O)Nc2ccnn2-c2ccccc2)cc1
solvation free energy, 298 K (in O): -21.2 kcal/mol

CC(=O)OC1CCC2(C)C(=CCC3C2CCC2(C)C(C(C)CCCC(C)C)CCC32)C1 (stereo not drawn)
solvation free energy, 298 K (in O): -5.48 kcal/mol

CCCOC(=O)c1ccccc1C(=O)OCCC
solvation free energy, 298 K (in O): -7.56 kcal/mol

C=CCCCC=C
solvation free energy, 298 K (in CCCCOC(C)=O): -4.42 kcal/mol | solvation free energy, 298 K (in CCOC(C)=O): -4.6 kcal/mol | solvation free energy, 298 K (in O): 1.16 kcal/mol

CCOC(C)O (stereo not drawn)
solvation free energy, 298 K (in O): -6.7 kcal/mol

OC(F)(C(F)F)C(F)(F)F (stereo not drawn)
solvation free energy, 298 K (in CO): -6.53 kcal/mol

C1=CCCCC1
solvation free energy, 298 K (in C1CCC2CCCCC2C1): -4.21 kcal/mol | solvation free energy, 298 K (in C1CCC(C2CCCCC2)CC1): -4.18 kcal/mol | solvation free energy, 298 K (in CC#N): -3.43 kcal/mol | solvation free energy, 298 K (in CC(=O)N(C)C): -3.48 kcal/mol | solvation free energy, 298 K (in CCC(C)=O): -4 kcal/mol | solvation free energy, 298 K (in CCCCCCCCO): -3.86 kcal/mol | solvation free energy, 298 K (in CCCCCl): -4.37 kcal/mol | solvation free energy, 298 K (in CCCCN(C=O)CCCC): -3.89 kcal/mol | solvation free energy, 298 K (in CCN1CCCC1=O): -3.79 kcal/mol | solvation free energy, 298 K (in CCN(CC)C(C)=O): -3.85 kcal/mol | solvation free energy, 298 K (in CCNC(C)=O): -3.67 kcal/mol | solvation free energy, 298 K (in CCNC=O): -3.52 kcal/mol | solvation free energy, 298 K (in CN1CCCC1=O): -3.7 kcal/mol | solvation free energy, 298 K (in CN1CCCCC1=O): -3.75 kcal/mol | solvation free energy, 298 K (in CN(C)C=O): -3.66 kcal/mol | solvation free energy, 298 K (in CNC(C)=O): -3.52 kcal/mol | solvation free energy, 298 K (in CNC=O): -3.26 kcal/mol | solvation free energy, 298 K (in COCCO): -3.48 kcal/mol | solvation free energy, 298 K (in CS(C)=O): -3.13 kcal/mol | solvation free energy, 298 K (in N#Cc1ccccc1): -3.95 kcal/mol | solvation free energy, 298 K (in NC=O): -1.87 kcal/mol | solvation free energy, 298 K (in O): 0.36 kcal/mol | solvation free energy, 298 K (in O=CN1CCOCC1): -3.21 kcal/mol | solvation free energy, 298 K (in OCCO): -2 kcal/mol | solvation free energy, 298 K (in OCCOCCO): -2.63 kcal/mol | solvation free energy, 298 K (in OCCOCCOCCO): -2.73 kcal/mol | solvation free energy, 298 K (in c1ccc2c(c1)CCCC2): -4.28 kcal/mol | solvation free energy, 298 K (in c1ccc(C2CCCCC2)cc1): -4.19 kcal/mol | solvation free energy, 298 K (in c1ccccc1): -4.47 kcal/mol

CC(C)CCCCCOC(=O)c1ccccc1C(=O)OCCCCCC(C)C
solvation free energy, 298 K (in O): -6.43 kcal/mol

CN(C)c1ccc(C(=O)O)cc1
solvation free energy, 298 K (in CN(C)C=O): -13.8 kcal/mol | solvation free energy, 298 K (in O): -9.28 kcal/mol

— the CombiSolv-Exp solvation set (Vermeire and Green 2021)
